Test results published in patent US11957766B2, “HNQO1-activatable fluorescent probe for imaging cancer cells in-vitro and in-vivo” (Texas Tech University System, priority 2019, dated 2024).
Values joined by “and” are separate entries in the source; they are usually repeats but may differ in a detail not shown here. Identical values can stand only once.

Key:
IMR90, HUVEC cells = assay: Fluorescence microscopy of NIR-ASM in NQO1 non-expressing normal cells; format: cell-based, human; details: 10 μM, 60 min
Protocol: Detection of NQO1 in live cells. Inspired by the excellent biocompatibility, the inventors investigated its performance in both NQO1 expressing cancer cells (A549, H460) and NQO1 non-expressing normal cells (IMR90, HUVEC). All cells were incubated with NIR-ASM (10 μM) for 60 min, washed with PBS and were imaged under a confocal microscope after counterstaining the nuclei with Hoechst 33342 (FIG. 12A). […] The higher expression of NQO1 protein in A549 and H460 cells and its absence in normal cells, IMR90 and HUVEC as found with western blot analysis correlated with the probe reactivity in cells (FIG. 12B). […] Cell sorting using flow cytometry is a well-established technology in clinical diagnostics and biomedical research. To assess the applicability of the NIR-ASM to rapidly detect and quantify in both cancer and normal cells based on NQO1 expression, the probe was incubated with cell suspensions for 60 min, and about 1×10^4 cells were analyzed on a flow cytometer.
Fluorescence imaging. Both cancer and normal cells were seeded into 6-well plates and cultured overnight in respective media at 37° C. Cells were treated with 10 μM NIR-ASM and incubated at 37° C. for 60 min. They were then treated with nuclear stain Hoechst 33342 for 5 min. Finally, the medium was replaced with PBS and the live cells were imaged using a multiphoton confocal fluorescence microscope (λex/em=488/644 nm). […]

NQO1 [1] = biological target: T1, NQO1 (Homo sapiens, UniProt P15559); assay: Fluorescent response of NIR-ASM towards NQO1; format: biochemical; parameters: purchased Sigma-Aldrich D1515
Protocol: Fluorescent response of NIR-ASM towards NQO1. To unequivocally establish that NIR-ASM is a highly specific sensor for NQO1, the inventors first investigated its spectral properties were systematically studied in simulated physiological conditions 0.1% BSA containing PBS, BSA used as a stabilizing agent, pH 7.4) at 37° C., and the results are given in FIGS. 9D and 9E. […] However, upon addition of NQO1, the absorption at 403 nm disappears and a prominent absorption at 465 nm emerges; Along with the bathochromic shift of UV/Vis absorption, a distinct color change from yellow to red was observed after 30 min of incubation with NQO1. […] However, the reaction of the probe with NQO1 produced a strong fluorescence emission band at 646 nm with a large Stokes shift ([…]) (FIG. 9F), which is highly advantageous for bioimaging analysis, because of non-overlapping excitation and emission wavelengths. Next, the fluorescence response of NIR-ASM to NQO1 at varying concentrations (0-2.5 μg/mL) was studied. […] Also, the fluorescence enhancement was directly proportional to the enzyme concentration in the range of 0.125-2.5 μg/mL (R^2=0.9919, FIG. 9G). The NQO1 detection limit (LOD) of NIR-ASM was calculated to be as low as 0.191 μg/mL, based on the standard deviation of the response (Sy) and the slope of the calibration curve (S) according to the formula: LOD=3.3(Sy/S).
Spectroscopic measurements. NIR-ASM was dissolved with DMSO to prepare a stock solution, which was then diluted with enzyme reaction buffer (PBS containing 2.5 μg/mL, 100 μM NADH and 0.1% BSA) to prepare different concentrations of the probe for UV/Vis and fluorescence measurement. Time-dependent fluorescence intensity changes for different concentrations of NIR-ASM in the presence of NQO1 (2.5 μg/mL) and 100 μM NADH were measured using Clear bottom 96 well black plate and microplate reader. Fluorescence (ex. 460 nm and em. 646 nm) was quantitated every minute for 90 min with 20 seconds of shaking in between intervals.

NQO1 [2] = biological target: T1, NQO1; assay: Spectroscopic response of NQ-DCP to hNQO1; format: biochemical
Protocol: Spectroscopic Response of NQ-DCP to hNQO1. The spectroscopic response of the NQ-DCP probe to an hNQO1 enzyme in the presence of NADH was evaluated in a physiologically relevant buffer (0.1% BSA and 100 μM NADH containing PBS) to determine its ability to detect hNQO1. The absorption and fluorescence spectra of NQ-DCP in the absence and presence of hNQO1 are shown in FIGS. 2A and B. In the presence of hNQO1, although there was a distinct color change from yellow to red there was no difference found in the absorption maximum (425 nm) of NQ-DCP ([…]). Further, the reaction of NQ-DCP probe with hNQO1 produced a huge fluorescence enhancement at 565 nm with a large Stokes shift (140 nm) (FIG. 2B), which is favorable for sensitive detection and bioimaging analysis, because of a non-overlapping fluorescence emission. […] The inventors measured the fluorescence spectra of NQ-DCP (10 μm) following incubation with different concentrations of hNQO1 (0.12, 0.25, 0.5, 1.0, 1.5, 2.0, and 2.5 μg/mL (0.0038, 0.008, 0.016, 0.032, 0.048, 0.064, 0.08 μmol)) along with 100 μM NADH at pH 7.4 for 30 min. […] On incubation with hNQO1, the fluorescence intensity at 565 nm increased progressively with the NQO1 concentration and reached a maximum when the hNQO1 concentration was 2.5 μg/mL. The fluorescence intensity at 565 nm was linear with hNQO1 concentration, 0.25-2.0 μg/mL (FIG. 2D). The hNQO1 detection limit (LOD) of NQ-DCP was calculated to be as low as 0.095 μg/mL, based on the standard deviation of the response (Sy) and the slope of the calibration curve (S) according to the formula: LOD=3.3(Sy/S).
Spectroscopic Methods. For absorption and fluorescence measurements, all samples were first dissolved in 100% DMSO to obtain 10 mM stock solutions and then diluted to desired concentrations in PBS buffer containing 0.1% BSA for measurement. All spectroscopic measurements were performed under physiological conditions (pH 7.4 at room temperature. hNQO1 specific NQ-DCP activation was performed under philological conditions (PBS with 0.1% of BSA at 37° C.) in the presence of 100 μM NADH for 30 min. Time-dependent fluorescent intensity changes for different concentrations of […] in the presence of NQO1 (2.0 μg/mL) and 100 μM NADH were measured using Hitachi F-2500 Fluorescence spectrophotometer (λex=420 nm and λem=565 nm).

T1 sequence (P15559 whole entry): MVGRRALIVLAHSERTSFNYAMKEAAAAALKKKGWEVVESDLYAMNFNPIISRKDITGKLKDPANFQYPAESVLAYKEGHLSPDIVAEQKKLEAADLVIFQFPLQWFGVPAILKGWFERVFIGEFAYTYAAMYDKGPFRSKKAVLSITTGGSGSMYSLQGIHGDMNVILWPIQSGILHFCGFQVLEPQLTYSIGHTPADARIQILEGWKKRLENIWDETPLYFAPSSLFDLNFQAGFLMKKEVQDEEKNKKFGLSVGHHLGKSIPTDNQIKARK

CC1=C(C)C(=O)C(C(C)(C)CC(=O)Nc2ccc(/C=C/C3=CC(=C(C#N)C#N)CC(C)(C)C3)cc2)=C(C)C1=O [NIR-ASM, (E)-N-(4-(2-(3-(dicyanomethylene)-5,5-dimethylcyclohex-1-en-1-yl)vinyl)phenyl)-3-methyl-3-(2,4,5-trimethyl-3,6-dioxocyclohexa-1,4-dien-1-yl)butanamide]
fluorescence signal in normal cells (IMR90, HUVEC cells): did not show any fluorescence | enzyme concentration range in which fluorescence enhancement was directly proportional (NQO1 [1]; 100 μM NADH): 0.125 to 2.5 µg/mL | NQO1 detection limit (LOD) (NQO1 [1]; LOD=3.3(Sy/S)): 0.191 µg/mL | time to maximum emission at 646 nm (NQO1 [1]; NQO1 2.5 μg/mL): 30 min | Stokes shift (NQO1 [1]; after reaction with NQO1): 186 nm | fluorescence emission band (NQO1 [1]; after reaction with NQO1): 646 nm | absorption band (NQO1 [1]; before addition of NQO1, PBS 0.1% BSA pH 7.4, 37° C.): 403 nm | absorption (NQO1 [1]; upon addition of NQO1): 465 nm

CC1=C(C)C(=O)C(C(C)(C)CC(=O)Oc2ccc(/C=C/C3=CC(=C(C#N)C#N)CC(C)(C)C3)cc2)=C(C)C1=O [NQ-DCP]
Stokes-Shift (NQO1 [2]): 145 | λabs/em (NQO1 [2]): 420/465 | hNQO1 concentration range in which fluorescence intensity at 565 nm was linear (NQO1 [2]; 10 μM probe, 100 μM NADH, 30 min): 0.25 to 2.0 µg/mL | hNQO1 detection limit (LOD) (NQO1 [2]; 10 μM probe, 100 μM NADH, pH 7.4, 30 min, LOD=3.3(Sy/S)): 0.095 µg/mL | stability in the absence of hNQO1 (NQO1 [2]; PBS with 0.1% BSA, 100 μM NADH, pH 7.4, 30 min, no hNQO1): highly stable | Stokes shift (NQO1 [2]; after reaction with hNQO1): 145 nm and 140 nm | fluorescence enhancement (emission wavelength) (NQO1 [2]; after reaction with hNQO1): 565 nm | absorption maximum (NQO1 [2]; no difference in the presence of hNQO1): 425 nm
